# Measurements as given in patent US20070128217A1 (priority 2003, published 2007).
# How the values were obtained:
# [1] = tested on: control sera (pooled serum of ten healthy LUMC hospital workers; commercial negative donor pooled serum from the Dutch bloodbank); assay type: binding, human; design: Binding of Control serum LUMC to linear peptides / Binding of Control serum Blood-bank to linear peptides / Binding of Control serum LUMC to looped peptides / Binding of Control Serum Blood-Bank to Looped peptides / Binding of Control serum LUMC to linear peptides of the protein M of SARS-CoV Urbani / Binding of Control serum Blood-bank to linear peptides of the protein M of SARS-CoV Urbani / Binding of Control serum LUMC to looped peptides of the protein M of SARS-CoV Urbani / Binding of Control Serum Blood-Bank to Looped peptides of the protein M of SARS-CoV Urbani: unit not given here
# [2] = tested on: rabbit serum obtained by immunizing a rabbit with the SARS-CoV strain Frankfurt 1; assay type: binding; design: Binding of a rabbit serum to linear peptides / Binding of a rabbit serum to looped peptides / Rabbit serum linear peptides / Rabbit serum looped peptides / Binding of a rabbit serum to linear peptides of protein N of SARS-CoV Urbani (Rabbit serum linear peptides) / Binding of a rabbit serum to looped/cyclic peptides of protein N of SARS-CoV Urbani (Rabbit serum looped peptides): unit not given here
Sequence,Binding of Control Serum Blood-Bank to Looped peptides of the protein X3 of SARS-CoV Urbani [1],Binding of Control serum Blood-bank to linear peptides of the protein X3 of SARS-CoV Urbani [1],Binding of Control serum LUMC to linear peptides of the protein X3 of SARS-CoV Urbani [1],Binding of Control serum LUMC to looped peptides of the protein X3 of SARS-CoV Urbani [1],Rabbit serum linear peptides [2],Rabbit serum looped peptides [2],Binding of Control Serum Blood-Bank to Looped peptides [1],Binding of Control serum Blood-bank to linear peptides [1],Binding of Control serum LUMC to linear peptides [1],Binding of Control serum LUMC to looped peptides [1],Binding of a rabbit serum to linear peptides [2],Binding of a rabbit serum to looped peptides [2],Binding of Control Serum Blood-Bank to Looped peptides of the protein M of SARS-CoV Urbani [1],Binding of Control serum Blood-bank to linear peptides of the protein M of SARS-CoV Urbani [1],Binding of Control serum LUMC to linear peptides of the protein M of SARS-CoV Urbani [1],Binding of Control serum LUMC to looped peptides of the protein M of SARS-CoV Urbani [1],Recognition of the peptide by the rabbit serum [2]
IIMRTFRIAIWNLDV,0.9,0.9,0.7,0.6,0.3,0.5,–,–,–,–,–,–,–,–,–,–,–
IISSIVRQLFKPLTK,0.6,0.8,0.8,0.6,0.6,0.4,–,–,–,–,–,–,–,–,–,–,–
ILIIIMRTFRIAIWN,0.7,0.8,0.5,0.3,0.5,0.6,–,–,–,–,–,–,–,–,–,–,–
ISTPKLKEDYQIGGY,–,–,–,–,–,–,0.7,0.7,1.0,0.5,0.1,0.4,–,–,–,–,–
ITAQPVKIDNASPAS,–,–,–,–,–,–,0.5,0.7,0.7,0.5,0.1,0.3,–,–,–,–,–
IVNVSLVKPTVYVYS,–,–,–,–,–,–,0.9,0.7,0.4,0.9,0.5,0.5,–,–,–,–,–
KEDYQIGGYSEDRHS,–,–,–,–,–,–,0.3,0.5,0.5,0.4,0.1,0.5,–,–,–,–,–
KIDNASPASTVHATA,–,–,–,–,–,–,0.6,0.6,0.7,0.7,0.2,0.3,–,–,–,–,–
KKNYSELDDEEPMEL,0.6,0.5,0.4,0.9,0.1,0.0,–,–,–,–,–,–,–,–,–,–,–
KLGASQRVGTDSGFA,–,–,–,–,0.1,0.1,–,–,–,–,–,–,0.8,0.9,0.9,0.9,–
KLVVILRIGTQVLKT,–,–,–,–,–,–,0.7,0.8,0.4,0.6,0.5,0.5,–,–,–,–,–
LADNKFALTCTSTHF,–,–,–,–,0.5,0.5,0.7,0.7,0.7,0.7,–,–,–,–,–,–,–
LFKPLTKKNYSELDD,0.8,0.7,0.6,0.9,0.3,0.4,–,–,–,–,–,–,–,–,–,–,–
LGASQRVGTDSGFAA,–,–,–,–,0.3,0.1,–,–,–,–,–,–,0.6,0.9,0.5,0.8,–
LGSITAQPVKIDNAS,–,–,–,–,–,–,0.4,0.4,0.5,0.4,0.3,0.4,–,–,–,–,–
LKEDYQIGGYSEDRH,–,–,–,–,–,–,0.4,0.5,0.5,0.5,0.1,0.7,–,–,–,–,–
LNTDHAGSNDNIALL,–,–,–,–,0.0,0.3,–,–,–,–,–,–,0.7,0.6,0.7,0.9,–
LRIGTQVLKTMSLYM,–,–,–,–,–,–,0.7,0.6,0.4,0.7,0.4,0.4,–,–,–,–,–
LRMAGHPLGRCDIKD,–,–,–,–,0.3,0.1,–,–,–,–,–,–,0.8,0.7,0.5,0.8,–
LSYYKLGASQRVGTD,–,–,–,–,0.2,0.3,–,–,–,–,–,–,0.7,0.8,0.8,0.7,–
LVKDPPNVQIHTIDG,–,–,–,–,–,–,0.6,0.4,0.4,0.7,0.1,0.5,–,–,–,–,–
LVKPTVYVYSRVKNL,–,–,–,–,–,–,0.7,0.8,0.4,0.7,0.6,0.9,–,–,–,–,–
MADNGTITVEELKQL,–,–,–,–,–,–,–,–,–,–,–,–,0.4,0.5,0.6,0.6,recognized
MAGHPLGRCDIKDLP,–,–,–,–,0.4,0.3,–,–,–,–,–,–,0.5,0.7,0.5,0.5,–
MRTFRIAIWNLDVII,0.8,0.7,0.6,0.8,0.3,0.4,–,–,–,–,–,–,–,–,–,–,–
NCQDPAGGALIARCW,–,–,–,–,0.5,0.5,0.8,0.6,0.3,0.6,–,–,–,–,–,–,–
NIVNVSLVKPTVYVY,–,–,–,–,–,–,0.6,0.6,0.4,0.8,0.5,0.6,–,–,–,–,–
NKLVKDPPNVQIHTI,–,–,–,–,–,–,0.8,1.0,0.9,0.9,0.1,0.6,–,–,–,–,–
NPAMDPIYDEPTTTT,–,–,–,–,–,–,0.4,0.4,0.3,0.4,0.1,0.3,–,–,–,–,–
